From PMC10634346 (Cancer Research Communications, 2023)

Experiments:
[1] = test system: RNA polymerase II Ser2 phosphorylation (p-Ser2) in SU-DHL-10 cells; assay: In vitro washout, p-Ser2 Western blot, SU-DHL-10; type: cell-based, human; details: 1 µmol/L
Procedure: (§1) Evaluation of the pharmacodynamic extent and duration of CDK9 inhibition were performed in vitro using the human DLBCL cell lines SU-DHL-4 and SU-DHL-10, harboring MYC amplification and MYC overexpression with P57T mutation, respectively. Cells were seeded 18 hours prior to treatment for 4 hours with one of three CDK9 inhibitors, enitociclib (0.25 and1 µmol/L), atuveciclib (1 µmol/L) or KB-0742 (1 µmol/L), cells were washed, and incubation continued until 48 hours posttreatment. Samples were collected before treatment (−4), immediately after treatment (0), and at 1, 2, 4, 8, 12, 16, 24, and 48 hours after washout for RNA sequencing (RNA-seq), qPCR, and Western blotting analyses.
The levels of p-Ser2, p-Ser5 and total RNA polymerase II, Myc, Mcl-1, cleaved PARP (cPARP), and cleaved Caspase 3 were assessed by Western blotting and quantified near-infrared detection and background corrected quantification of fluorescence intensity on an Odyssey Imaging System with IRDye secondary antibodies (LI-COR Biosciences). For quantification, the protein levels were normalized to GAPDH or HSP90, expressed as a ratio to DMSO or vehicle control at matched timepoints. The normalized relative protein levels of p-Ser2 were used for a treatment effect comparison by performing an ANOVA using PROC MIXED in SAS. The ANOVA model included treatment, timepoints and their interactions as fixed effects. The least square means (LSM), differences between the LSMs and associated P values were generated. The following primary antibodies were used: Rpb1 NTD (D8L4Y) rabbit antibody [Cell Signaling Technology (CST), #14958], anti-RNA polymerase II subunit B1 (phospho CTD Ser-2, clone 3E10) rat antibody (Merck, 04-1571-I), recombinant anti-c-MYC rabbit antibody (Y69; Abcam, #ab32072), MCL1 (D5V5L) rabbit antibody (CST, #39224), cleaved-PARP (Asp214) (E2T4K) mouse antibody (CST, #32563), HSP90 (C45G5) rabbit antibody (CST, #4877), and GAPDH mouse antibody (Zytomed Systems, #ZYT-RGM2-6C5).

[2] = test system: MCL1 mRNA in SU-DHL-10 cells; assay: In vitro washout, MCL1 mRNA qPCR, SU-DHL-10; type: cell-based, human; details: 4 h treatment then washout, for 16 to 48 hours after treatment
Procedure: (§2) Evaluation of the pharmacodynamic extent and duration of CDK9 inhibition were performed in vitro using the human DLBCL cell lines SU-DHL-4 and SU-DHL-10, harboring MYC amplification and MYC overexpression with P57T mutation, respectively. Cells were seeded 18 hours prior to treatment for 4 hours with one of three CDK9 inhibitors, enitociclib (0.25 and1 µmol/L), atuveciclib (1 µmol/L) or KB-0742 (1 µmol/L), cells were washed, and incubation continued until 48 hours posttreatment. Samples were collected before treatment (−4), immediately after treatment (0), and at 1, 2, 4, 8, 12, 16, 24, and 48 hours after washout for RNA sequencing (RNA-seq), qPCR, and Western blotting analyses. Total RNA was extracted from blood of patients and cell lines using RNeasy Plus Mini Kit (QIAGEN, #74136) and cDNA prepared with the Maxima First Strand cDNA Synthesis Kit for RT-PCR (Thermo Fisher Scientific, K1642) according to manufacturer's instructions. The integrity of purified total RNA was evaluated using an Agilent 2100 Bioanalyzer system and RNA 6000 Nano Kit (Agilent, #5067-1511). Differential gene expression analysis was performed (Fios Genomics) from RNA-seq data (Discovery Life Sciences). MYC and MCL1 mRNA levels were measured by qPCR in vitro and in vivo, using a Taqman qPCR system (Thermo Fisher Scientific), TaqMan Fast Universal PCR Master Mix (2X) no AmpErase (#4352042) and TaqMan probes for MYC (Hs00153408_m1) and MCL1 (Hs03043899_m1). RNA-seq data were analyzed using DESeq2 ([35]).

[3] = test system: MYC and MCL1 mRNA in SU-DHL-4 cells; assay: In vitro washout, MYC and MCL1 mRNA qPCR, SU-DHL-4; type: cell-based, human; details: 1 µmol/L, 4 h treatment then washout
Procedure: as §2, with “Differential gene expression analysis was performed (Fios Genomics) from RNA-seq data (Discovery Life Sciences).” left out

[4] = test system: Myc and Mcl-1 protein in SU-DHL-10 cells; assay: In vitro washout, Myc and Mcl-1 protein Western blot, SU-DHL-10; type: cell-based, human; details: 1 µmol/L, 4 h treatment then washout
Procedure: as §1
The levels of p-Ser2, p-Ser5 and total RNA polymerase II, Myc, Mcl-1, cleaved PARP (cPARP), and cleaved Caspase 3 were assessed by Western blotting and quantified near-infrared detection and background corrected quantification of fluorescence intensity on an Odyssey Imaging System with IRDye secondary antibodies (LI-COR Biosciences). For quantification, the protein levels were normalized to GAPDH or HSP90, expressed as a ratio to DMSO or vehicle control at matched timepoints. The normalized relative protein levels of p-Ser2 were used for a treatment effect comparison by performing an ANOVA using PROC MIXED in SAS. The ANOVA model included treatment, timepoints and their interactions as fixed effects. […]

[5] = test system: PHF23, TP53RK, ZFP36 and JUNB mRNA in blood; assay: RNA-seq DEGs in blood of patients (PHF23, TP53RK, ZFP36, JUNB); type: in vivo, human
Procedure: Total RNA was extracted from blood of patients and cell lines using RNeasy Plus Mini Kit (QIAGEN, #74136) and cDNA prepared with the Maxima First Strand cDNA Synthesis Kit for RT-PCR (Thermo Fisher Scientific, K1642) according to manufacturer's instructions. The integrity of purified total RNA was evaluated using an Agilent 2100 Bioanalyzer system and RNA 6000 Nano Kit (Agilent, #5067-1511). Differential gene expression analysis was performed (Fios Genomics) from RNA-seq data (Discovery Life Sciences). MYC and MCL1 mRNA levels were measured by qPCR in vitro and in vivo, using a Taqman qPCR system (Thermo Fisher Scientific), TaqMan Fast Universal PCR Master Mix (2X) no AmpErase (#4352042) and TaqMan probes for MYC (Hs00153408_m1) and MCL1 (Hs03043899_m1). RNA-seq data were analyzed using DESeq2 ([35]).
Fifteen patients with refractory or relapsed DH-DLBCL or other MYC+ NHL were treated with enitociclib (30 mg, 21-day cycle, once weekly x3) as a 30-minute intravenous infusion on study days 1, 8, and 15 (NCT02635672). Longitudinal gene expression levels were analyzed by RNA-seq, and enitociclib plasma concentrations were measured using LC/MS-MS. The clinical study protocol was approved by the Institutional Review Board of participating institutions and complied with the Declaration of Helsinki, current Good Clinical Practice guidelines, and local laws and regulations. Written informed consent was provided by all participants prior to the initiation of any study-specific procedure.
RNA-seq data generated from the analysis of two cell lines treated with the three CDK9 inhibitors was analyzed to investigate the differences in gene expression levels between various posttreatment timepoints and the pretreatment samples. Quality control assessment and exploratory data analysis by principal component analysis (PCA) were done on raw counts and on normalized count data. Normalization of RNA-seq count data was done using trimmed mean of M-values normalization and transformed with voom, resulting in log2 counts per million with associated precision weights. […] Significance values (Padj) were adjusted for multiple testing, by controlling the FDR using the Benjamini–Hochberg procedure. […] RNA-seq data generated from blood samples taken from patients before and after their first dose (C1D1) or after multiple doses, before and after their third dose (C1D15) were analyzed and normalized using the same pipeline as cell lines for comparisons.

[6] = DH-DLBCL and other MYC+ NHL, after C1D1 and C1D15

With `COc1cc(F)ccc1-c1cc(Nc2cc(CS(C)(=N)=O)ccn2)ncc1F` (stereo not shown) [enitociclib] the “reduction of p-Ser2” value ([1]; 4-hour treatment then washout) was 50%, the “duration of p-Ser2 reduction” value ([1]; after treatment) was “up to 24 hours” and the “inhibition of MCL1 mRNA levels” value [2] was “approximately 75%”. For the same compound, the “MYC and MCL1 mRNA levels over the 48-hour time course (in words)” value [3] was “durable depletion”, the “duration of sustained Myc and Mcl-1 protein depletion” value [4] was 48 h and the “PHF23 mRNA fold change from predose” value [5, 6] was “approximately –1 fold change”. The “TP53RK mRNA fold change from predose” value [5, 6] was “–2 fold change”, the “Downregulation of ZFP36 and JUNB mRNA levels” value (from here on “Downregulation”) ([5]; other MYC+ NHL (n = 3), after C1D1) was “approximately −2 fold change” and the “Downregulation” value ([5]; other MYC+ NHL (n = 3), after C1D15 (decreased toward)) was roughly −1. The “Downregulation” value ([5]; patients with DH-DLBCL, after C1D1 and C1D15) was greater than −2.
